Data published in patent US20180344725A1, “QUINOLONE CHALCONE COMPOUNDS AND USES THEREOF” (priority 2015, published 2018).

Key:
[1] = test system: HeLa cells; assay: Cell cycle analysis by flow cytometry; format: cell-based; conditions: 6-72 hours
Experimental: Approximately 1×10^6 cells per plate were seeded and grown overnight. Cells were then treated the next morning with test compounds, and harvested at the scheduled post-treatment times. The cell pellet was collected by centrifugation at 1,100 rpm (Allegra™ X-12 centrifuge, Beckman Coulter, Indianapolis, Ind.), followed by washing the cells twice with PBS, and fixing them with 75% ethanol for 12-24 hours at −20° C. Ethanol was removed by centrifugation at […] (Allegra™ X-12 centrifuge, Beckman Coulter); cells were suspended in PBS and centrifuged again at […] in the same rotor. The PBS was then removed and the cell pellet was resuspended and stained for 1 hour with propidium iodide (PI) staining solution (0.3% nonidet P-40, 100 μg/ml RNase A and 100 μg/ml PI in PBS). The DNA content in the different phases of the cell cycle was analysed by flow cytometry using Beckmann Coulter Cytomics FC500 (Mississauga, ON, Canada). The reversibility of drug effects was determined as follow: HeLa cells treated with a CTR compound for 12 hours were washed twice with 1×PBS, and then released them into pre-warmed drug-free complete medium for scheduled durations. The cells were then examined by confocal microscopy for their morphology or subjected to cell cycle analysis by flow cytometry after cells (DNA) were stained with propidium iodide.

[2] = test system: MDA-MB-231; assay: Immunofluorescent staining: centrosomes and chromosome segregation; format: cell-based, human; conditions: for ACS (abnormal chromosome segregation) / Monopolar centrosome: MDA-MB-231, 3 μM
Experimental: (§1) Cells on coverslips placed on the bottom of 35 mm tissue culture plates or 6-well clustered dishes were treated for 12-24 hours with the CTR compounds to be tested. Subsequently, the cells were fixed with 100% methanol for 15 minutes and washed with 1×PBS three times. Cells were then “blocked” with 3% BSA or 1% (v/v) FBS plus 1×PBST (1×PBS buffer containing 0.1% (v/v) Triton X-100 or 0.2% Tween 20), and incubated overnight at 4° C. with primary antibodies, with gentle agitation. Unbound primary antibodies were washed off with PBST, and a secondary antibody was added for 1 hour in the dark. Secondary antibodies were conjugated to Alexa 488 or 568. DNA was counterstained with DRAQ5 or DAPI. Subsequently, coverslips were washed three times with 1×PBST for 10 minutes each, followed by mounting them onto slides with 90% glycerol in 1×PBS. Each slide was visualized with a Carl Zeiss 510 Meta laser scanning microscope or an Axioscope. Image analysis was done with an LSM image examiner equipped with the microscopes (Carl Zeiss, Toronto, ON, Canada).
(§2) The cancer-specific increase of mitotic cells in response to CTR-17 was correlated with the accumulation of cells with monopolar centrosomes and abnormal chromosome alignment/segregation (FIG. 11, Table 5). Cells were either sham-treated or treated with 3.0 μM CTR-17 for 12 hours or 24 hours, followed by analyses of cell cycle progression, centrosome abnormalities, and chromosome alignment/segregation. […] The mitotic index was determined by fluorescence microscopic analysis of at least 200 cells for each cell type, and data was expressed as percentage mean±S.E.M. of at least two independent experiments.
Asynchronously growing cells were treated with 1 μM CTR-20 for 24 hours, followed by examining cells arrested in mitosis. The percentage of mitotic cells was calculated based on the examination of at least 250-400 cells. Cells treated with 1 μM CTR-20 for 24 hours on coverslips were fixed with ice-cold methanol, immunostained with an α-tubulin antibody, and then counterstained DNA with DRAQ5 prior to observing by florescent microscopy (Table 6). […] Similarly, cells treated with 1 μM CTR-20 accumulated monopolar centrosomes and defective chromosomal alignment and segregation in a cancer-specific manner.

[3] = target: T1, tubulin (Sus scrofa, UniProt P02550+P02554); assay: Dissociation constant of CTR-tubulin binding (tryptophan fluorescence); parameters: species or system porcine; conditions: purified tubulin 0.4 μM, 30 minutes at 37° C.
T1 construct: purchased Cytoskeleton Inc. (Denver, Colo.) T240
T1 sequence (P02554 whole entry): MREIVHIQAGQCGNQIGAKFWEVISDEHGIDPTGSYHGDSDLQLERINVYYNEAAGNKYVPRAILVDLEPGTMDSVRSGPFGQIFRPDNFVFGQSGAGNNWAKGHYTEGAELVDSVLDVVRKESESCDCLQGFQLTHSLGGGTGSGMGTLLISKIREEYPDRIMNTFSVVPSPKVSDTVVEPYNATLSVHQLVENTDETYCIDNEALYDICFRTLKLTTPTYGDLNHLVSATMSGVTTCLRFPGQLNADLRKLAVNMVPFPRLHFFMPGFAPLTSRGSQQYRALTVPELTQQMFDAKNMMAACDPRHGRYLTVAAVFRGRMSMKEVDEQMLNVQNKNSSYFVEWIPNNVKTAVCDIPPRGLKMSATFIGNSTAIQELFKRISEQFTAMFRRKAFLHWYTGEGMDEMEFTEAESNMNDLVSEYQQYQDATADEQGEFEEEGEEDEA
T1 sequence (P02550 whole entry): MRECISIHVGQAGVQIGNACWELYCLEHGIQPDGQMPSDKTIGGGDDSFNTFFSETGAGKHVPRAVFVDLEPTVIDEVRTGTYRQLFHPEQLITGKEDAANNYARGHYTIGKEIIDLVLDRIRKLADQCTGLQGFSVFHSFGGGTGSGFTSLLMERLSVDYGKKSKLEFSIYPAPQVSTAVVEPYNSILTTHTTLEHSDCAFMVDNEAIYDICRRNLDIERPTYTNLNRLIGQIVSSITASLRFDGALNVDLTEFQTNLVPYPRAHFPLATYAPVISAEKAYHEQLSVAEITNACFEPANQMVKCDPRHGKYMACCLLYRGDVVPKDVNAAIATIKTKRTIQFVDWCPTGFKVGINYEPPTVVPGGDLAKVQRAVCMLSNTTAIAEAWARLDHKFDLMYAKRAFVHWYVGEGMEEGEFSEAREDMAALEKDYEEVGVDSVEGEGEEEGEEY
Experimental: Purified tubulin (0.4 μM) was dissolved in 25 mM PIPES buffer (pH 6.8) and incubated in the presence or absence of different concentrations of CTR-17 (or CTR-20) for 30 minutes at 37° C. The intrinsic fluorescence of the tryptophan residues in the tubulin heterodimers was monitored by excitation of the reaction mixture at 295 nm and the emission spectra at the 315-370 nm wavelength range. All measurements were corrected for the inner filter using the formula Fcorrected=Fobserved×antilog [(Aex+Aem)/2], where Aex and Aem are the absorbance of the reaction mixture at the excitation and emission wavelengths, respectively. Graph Pad Prism software was used to determine the dissociation constant of the CTR compounds binding to tubulin using the following formula
wherein ΔF is the changes in fluorescence intensity of tubulin when bound with the CTR compounds, ΔFmax is the maximum change in the fluorescence intensity when tubulin is bound with the compounds, C is the concentration of the CTR compounds, and Kd is the dissociation constant of the CTR compounds bound to tubulin.

[4] = test system: MDA-MB-468; assay: Immunofluorescent staining: centrosomes and chromosome segregation; format: cell-based, human; conditions: 3 μM
Experimental: as §1, §2

[5] = test system: MCF-7; assay: as above; format: cell-based, human; conditions: 1 μM, 24 hours
Experimental: as §1
Asynchronously growing cells were treated with 1 μM CTR-20 for 24 hours, followed by examining cells arrested in mitosis. The percentage of mitotic cells was calculated based on the examination of at least 250-400 cells. […]

[6] = test system: HeLa S3 cells; assay: Trypan blue exclusion assay; format: cell-based; conditions: 1 μM; 72 hours post-treatment
Experimental: Cell survival/death was determined by trypan blue exclusion assays.

[7] = test system: NCI-60 cancer cell lines; assay: NCI-60 cancer panel SRB screening; format: cell-based; conditions: 10 μM, 48 hours
Experimental: Ten μM of CTR-20 was used to examine the drug's efficacy against the NCI-60 cancer cell lines including: six leukemia cell lines, nine non-small cell lung cancer cell lines, seven colorectal cancer cell lines, six CNS cancer cell lines, nine melanoma cell lines, seven ovarian cancer cell lines, seven renal cancer cell lines, two prostate cancer cell lines and six breast cancer cell lines. Screening method was carried out by a sulforhodamine B (SRB) colorimetric assay.

CCOc1ccccc1C(=O)/C=C/c1cc2ccccc2[nH]c1=O [CTR-32, (E)-3-(3-(2-ethoxyphenyl)-3-oxoprop-1-enyl)quinolin-2(1H)-one]
concentrations that caused mitotic arrest and, eventually, cell death [1]: > 50 nM

COc1ccccc1C(=O)/C=C/c1cc2ccccc2[nH]c1=O [CTR-17, (E)-3-(3-(2-Methoxyphenyl)-3-oxoprop-1-enyl)quinolin-2(1H)-one]
ACS (abnormal chromosome segregation) ([2]; 12 h post-treatment): 60.0 ± 10.2% of total mitotic cells | Monopolar centrosome ([2]; 12 h post-treatment): 40.0 ± 10.2% of total mitotic cells | ACS (abnormal chromosome segregation) ([2]; 24 h post-treatment): 55.1 ± 5.7% of total mitotic cells | Monopolar centrosome ([2]; 24 h post-treatment): 44.9 ± 5.7% of total mitotic cells | Kd [3]: 4.58 ± 0.95 µM | ACS (abnormal chromosome segregation) ([4]; 12 h post-treatment): 44.7 ± 8.9% of total mitotic cells | Monopolar centrosome ([4]; 12 h post-treatment): 55.3 ± 8.9% of total mitotic cells | ACS (abnormal chromosome segregation) ([4]; 24 h post-treatment): 24.0 ± 5.9% of total mitotic cells | Monopolar centrosome ([4]; 24 h post-treatment): 76.0 ± 5.9% of total mitotic cells

COc1ccc2[nH]c(=O)c(/C=C/C(=O)c3ccccc3OC)cc2c1 [CTR-20, (E)-6-Methoxy-3-(3-(2-methoxyphenyl)-3-oxoprop-1-enyl) quinolin-2(1H)-one]
ACA/S (%) (abnormal chromosome alignment and segregation) ([2]; MB231, 1 μM, 24 hours): 58.05 ± 6.21% | Monopolar (%) ([2]; MB231, 1 μM, 24 hours): 35.73 ± 5.59% | ACA/S (%) (abnormal chromosome alignment and segregation) [5]: 29.01 ± 2.50% | Monopolar (%) [5]: 62.41 ± 2.99% | cell death [6]: ~70% | Kd [3]: 5.09 ± 0.49 µM | cell survival (range over cell lines) ([7]; nine melanomas): −10.05 to +50.45% | cell survival (range over cell lines) ([7]; nine non-small cell lung cancer cell lines): −11.97 to 38.93% | cell survival (range over cell lines) ([7]; seven colorectal cancer cell lines): +4.37 to +23.11% | cell survival (range over cell lines) ([7]; seven ovarian cancer cell lines): +1.18 to +50.80% | cell survival (range over cell lines) ([7]; seven renal cancer cell lines): −7.90 to +42.01% | cell survival (range over cell lines) ([7]; six breast cancer cell lines): −2.02 to +18.91% | cell survival (range over cell lines) ([7]; six leukemia cell lines): −2.46 to +10.88% | cell survival (range over cell lines) ([7]; two prostate cancer cell lines): +10.76 to +22.06%

COc1ccccc1C(=O)/C=C/c1cc2cccc(OC)c2[nH]c1=O [CTR-21, (E)-8-methoxy-3-(3-(2-methoxyphenyl)-3-oxoprop-1-enyl) quinolin-2(1H)-one]
concentrations that caused mitotic arrest and, eventually, cell death [1]: > 60 nM
